Usually IC50 stands for the concentration at which inhibition is half-maximal.

One test addresses T1, human KCNK13 (Homo sapiens, UniProt Q9HB14).
T1 construct: expressed in transfected cells
T1 sequence (Q9HB14 1-408): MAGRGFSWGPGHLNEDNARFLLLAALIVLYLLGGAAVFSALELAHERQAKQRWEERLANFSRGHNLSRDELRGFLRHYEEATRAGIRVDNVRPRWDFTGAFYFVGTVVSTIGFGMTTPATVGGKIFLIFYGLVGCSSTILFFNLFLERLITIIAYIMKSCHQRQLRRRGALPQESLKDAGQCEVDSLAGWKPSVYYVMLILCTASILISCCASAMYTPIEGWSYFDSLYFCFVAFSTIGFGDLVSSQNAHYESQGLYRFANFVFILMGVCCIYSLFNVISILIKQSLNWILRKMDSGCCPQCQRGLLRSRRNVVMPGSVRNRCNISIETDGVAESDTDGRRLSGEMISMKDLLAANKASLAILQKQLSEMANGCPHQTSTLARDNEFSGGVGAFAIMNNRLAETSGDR
The test can be described thus: KCNK13 antagonist activity, thallium flux FLIPR assay in HEK 293 cells stably expressing human KCNK13. The format is cell-based. The note with it: HEK 293 cells stably expressing human KCNK13, Tl+ sensitive dye, compound 15 min before thallium sulfate, ten point curves; read-out: hKCNK13 IC50. An outline of the steps: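 HEK 293 cells stably expressing human KCNK13, loaded with Tl+-sensitive dye 1 h at room temperature, then exposed to compound for 15 min before thallium sulfate stimulus. Tl+ influx read by FLIPR fluorescence; IC50 from ten-point half-log curves starting at 100 µM, each point averaging two wells.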
For `COc1ncc(F)cc1C(=O)N(C)C1CCc2ccccc21` (single isomer, unassigned) [Example 16, N-(2,3-dihydro-1H-inden-1-yl)-5-fluoro-2-methoxy-N-methylnicotinamide], the IC50 was at most 500 nM.

Take `COc1ncc(F)cc1C(=O)N(C)Cc1ccc(F)cc1F` [Example 39, N-(2,4-difluorobenzyl)-5-fluoro-2-methoxy-N-methylnicotinamide]: the 50% inhibitory concentration (IC50) is at most 200 nM.

`COc1ncc(Cl)cc1C(=O)N(C)Cc1cccc(F)c1` [Example 24, 5-chloro-N-(3-fluorobenzyl)-2-methoxy-N-methylnicotinamide]: the IC50 was at most 50 nM.

Turning to `COc1ncc(Cl)cc1C(=O)N(C)C(C)c1ccc(F)cc1C#N` (single isomer, unassigned) [Example 66, 5-chloro-N-(1-(2-cyano-4-fluorophenyl)ethyl)-2-methoxy-N-methylnicotinamide], the IC50 was at most 5000 nM.

As to `CN(Cc1cccc(F)c1)S(=O)(=O)c1cc(F)cnc1OC(F)F` [Example 112, 2-(difluoromethoxy)-5-fluoro-N-(3-fluorobenzyl)-N-methylpyridine-3-sulfonamide], the half-inhibitory concentration (IC50) was at most 100 nM.

Take `COc1ncc(F)cc1C(=O)N(C)C1CCc2ccc(F)cc21` (single isomer, unassigned) [Example 9, 5-fluoro-N-(6-fluoro-2,3-dihydro-1H-inden-1-yl)-2-methoxy-N-methylnicotinamide]: the IC50 was at most 1000 nM.

On to `CN(Cc1cccc(F)c1)C(=O)c1cc(F)cnc1OC(F)F` [Example 95, 2-(difluoromethoxy)-5-fluoro-N-(3-fluorobenzyl)-N-methylnicotinamide], for which the IC50 is at most 100 nM.

As to `COc1ncc(F)cc1C(=O)N(C)Cc1c(F)cc(F)cc1C#N` [Example 61, N-(2-cyano-4,6-difluorobenzyl)-5-fluoro-2-methoxy-N-methylnicotinamide], the 50% inhibitory concentration (IC50) was at most 1000 nM.

As for `CN(Cc1cc(F)cc(F)c1)C(=O)c1cc(Cl)cnc1OC(F)F` [Example 78, 5-chloro-N-(3,5-difluorobenzyl)-2-(difluoromethoxy)-N-methylnicotinamide], the IC50 is at most 50 nM.

Consider `COc1ncc(F)cc1C(=O)N(C)C(C)c1cccc(F)c1` (single isomer, unassigned) [Example 8, 5-fluoro-N-(1-(3-fluorophenyl)ethyl)-2-methoxy-N-methylnicotinamide], for which the IC50 was at most 200 nM.

Regarding `COc1ncc(F)cc1C(=O)N(C)C(C)c1ccc(F)cc1F` (single isomer, unassigned) [Example 68, N-(1-(2,4-difluorophenyl)ethyl)-5-fluoro-2-methoxy-N-methylnicotinamide], the IC50 was at most 5000 nM.

As for `COc1ncc(Cl)cc1C(=O)N(C)Cc1cc(F)cc(F)c1` [Example 41, 5-chloro-N-(3,5-difluorobenzyl)-2-methoxy-N-methylnicotinamide], the IC50 was at most 200 nM.

For `CN(Cc1cccc(Cl)c1)S(=O)(=O)c1cc(F)cnc1OC(F)F` [Example 108, N-(3-chlorobenzyl)-2-(difluoromethoxy)-5-fluoro-N-methylpyridine-3-sulfonamide], the IC50 was at most 200 nM.

For the compound `CN(C(=O)c1cc(Cl)cnc1OC(F)F)C1COc2ccccc21` (centres unmarked) [Example 91, 5-chloro-2-(difluoromethoxy)-N-(2,3-dihydrobenzofuran-3-yl)-N-methylnicotinamide], the IC50 is at most 500 nM.

As to `CCN(Cc1ccccc1F)C(=O)c1cc(Cl)cnc1OC` [Example 48, 5-chloro-N-ethyl-N-(2-fluorobenzyl)-2-methoxynicotinamide], the 50% inhibitory concentration (IC50) was at most 500 nM.

Turning to `COc1ncc(Cl)cc1C(=O)N(C)C1CCc2ccccc21` (single isomer, unassigned) [Example 23, 5-chloro-N-(2,3-dihydro-1H-inden-1-yl)-2-methoxy-N-methylnicotinamide], the half-inhibitory concentration (IC50) is at most 500 nM.

For `CN(Cc1cccc(F)c1)C(=O)c1cc(Cl)cnc1OC(F)F` [Example 101, 5-chloro-2-(difluoromethoxy)-N-(3-fluorobenzyl)-N-methylnicotinamide], the IC50 is at most 100 nM.

On to `COc1nc(C)ccc1C(=O)N(C)Cc1ccc(F)cc1F` [Example 11, N-(2,4-difluorobenzyl)-2-methoxy-N,6-dimethylnicotinamide], for which the half-maximal inhibitory concentration (IC50) was at most 1000 nM.

On to `CCOc1ncc(Cl)cc1C(=O)N(C)C1CCc2ccccc21` (single isomer, unassigned) [Example 12, 5-chloro-N-(2,3-dihydro-1H-inden-1-yl)-2-ethoxy-N-methylnicotinamide], for which the half-maximal inhibitory concentration (IC50) was at most 1000 nM.

On to `COc1ncc(Cl)cc1C(=O)N(C)C1CCOc2c(F)cccc21` (single isomer, unassigned) [Example 29, 5-chloro-N-(8-fluorochroman-4-yl)-2-methoxy-N-methylnicotinamide], for which the concentration for half-maximal inhibition (IC50) is at most 500 nM.

For the compound `COc1ncc(Cl)cc1C(=O)N(C)C1CCc2cccc(C#N)c21` (centres unmarked) [Example 3, 5-chloro-N-(7-cyano-2,3-dihydro-1H-inden-1-yl)-2-methoxy-N-methylnicotinamide], the IC50 is at most 500 nM.

For the compound `COc1ncc(F)cc1C(=O)N(C)C1CCOc2ccccc21` (single isomer, unassigned) [Example 15, N-(chroman-4-yl)-5-fluoro-2-methoxy-N-methylnicotinamide], the IC50 was at most 500 nM.

`CN(C(=O)c1cc(Cl)cnc1OC(F)F)C1COc2c(F)cccc21` (centres unmarked) [Example 92, 5-chloro-2-(difluoromethoxy)-N-(7-fluoro-2,3-dihydrobenzofuran-3-yl)-N-methylnicotinamide]: the half-maximal inhibitory concentration (IC50) is at most 500 nM.

For `COc1ncc(C)cc1S(=O)(=O)N1CCOc2ccc(F)cc2C1` [Example 53, 7-fluoro-4-((2-methoxy-5-methylpyridin-3-yl)sulfonyl)-2,3,4,5-tetrahydrobenzo[f][1,4]oxazepine], the 50% inhibitory concentration (IC50) was at most 500 nM.

In the case of `CN(Cc1cccc(OC(F)F)c1)C(=O)c1cc(Cl)cnc1OC(F)F` [Example 98, 5-chloro-2-(difluoromethoxy)-N-(3-(difluoromethoxy)benzyl)-N-methylnicotinamide], the IC50 is at most 200 nM.

With `COc1ncc(F)cc1C(=O)N(C)C(C)c1cccc(F)c1` (single isomer, unassigned) [Example 7, 5-fluoro-N-(1-(3-fluorophenyl)ethyl)-2-methoxy-N-methylnicotinamide], the IC50 is at most 200 nM.

Regarding `COC(=O)c1ccc(F)cc1CN(C)C(=O)c1cc(F)cnc1OC` [Example 56, methyl 4-fluoro-2-((5-fluoro-2-methoxy-N-methylnicotinamido)methyl)benzoate], the concentration for half-maximal inhibition (IC50) was at most 500 nM.

As to `COc1ncc(Cl)cc1C(=O)N(C)C1COc2ccccc21` (single isomer, unassigned) [Example 26, 5-chloro-N-(2,3-dihydrobenzofuran-3-yl)-2-methoxy-N-methylnicotinamide], the half-maximal inhibitory concentration (IC50) was at most 500 nM.

Regarding `Cc1cc(F)cc(CN(C)C(=O)c2cc(Cl)cnc2OC(F)F)c1` [Example 76, 5-chloro-2-(difluoromethoxy)-N-(3-fluoro-5-methylbenzyl)-N-methylnicotinamide], the IC50 was at most 200 nM.

For the compound `COc1ncc(Cl)cc1C(=O)N(C)C1CCc2ccc(F)cc21` (single isomer, unassigned) [Example 20, 5-chloro-N-(6-fluoro-2,3-dihydro-1H-inden-1-yl)-2-methoxy-N-methylnicotinamide], the half-maximal inhibitory concentration (IC50) is at most 500 nM.

`COc1ncc(Cl)cc1C(=O)N(C)Cc1cccc(F)c1F` [Example 40, 5-chloro-N-(2,3-difluorobenzyl)-2-methoxy-N-methylnicotinamide]: the concentration for half-maximal inhibition (IC50) was at most 200 nM.

Consider `COc1ncc(F)cc1C(=O)N(C)C1CCc2ccccc21` (single isomer, unassigned) [Example 17, N-(2,3-dihydro-1H-inden-1-yl)-5-fluoro-2-methoxy-N-methylnicotinamide], for which the IC50 is at most 500 nM.

The test system of the next test is Mouse primary microglia IL-1β. The test is described as follows: Inflammasome assay in primary mouse postnatal microglia using LPS/0 mM extracellular K+ (IL-1β release). As to conditions: 100 ng/mL LPS 3.5 h, compound 30 min, K+ free buffer 2 h, IL-1β levels by MesoScale. The format is cell-based. The method, then: 3. Inflammasome Assay in Primary Mouse Postnatal Microglia Using LPS/0 mM Extracellular K^+
Newly shaken mouse microglia cells were added to a 96-well plate and left to adhere overnight. After this time, 100 ng/mL LPS was added to each well and incubated at 37° C. for 3.5 hours, at which point compound addition was undertaken and plates incubated at 37° C. for an additional 30 minutes. After this time, the medium in each well was removed and replaced with K^+ free buffer and the plates then incubated for an additional 2 hours at 37° C. Measurement of IL-1β levels in the sample wells was undertaken using MesoScale Discovery™ MESO QuickPlex SQ 120 and IL-1β antibodies from mouse IL-1β DuoSet ELISA kit (R&D System, DY401).
As to `COc1ncc(F)cc1C(=O)N(C)C1CCc2ccccc21` (single isomer, unassigned) [Example 16, N-(2,3-dihydro-1H-inden-1-yl)-5-fluoro-2-methoxy-N-methylnicotinamide], the IC50 was at most 600 nM.

For `COc1ncc(F)cc1C(=O)N(C)Cc1ccc(F)cc1F` [Example 39, N-(2,4-difluorobenzyl)-5-fluoro-2-methoxy-N-methylnicotinamide], the half-inhibitory concentration (IC50) was at most 300 nM.

`COc1ncc(Cl)cc1C(=O)N(C)Cc1cccc(F)c1` [Example 24, 5-chloro-N-(3-fluorobenzyl)-2-methoxy-N-methylnicotinamide] yielded a 50% inhibitory concentration (IC50) of at most 150 nM.

Source of the values: patent US20260167632A1, “NICOTINAMIDE DERIVATIVES FOR USE IN TREATING DISORDERS ASSOCIATED WITH KCNK13 ACTIVITY” (Cerevance, Inc., priority 2022, published 2026).
